Marks after values point to notes of the source that are not given here.
What was measured:
RORγt = molecular target: T1, RORγt (Homo sapiens, UniProt P51449); assay: Fluorescence resonance energy transfer (FRET) test, inhibitory activity of RORγt; type: biochemical; settings: FRET, B-RORγt LBD / Biotin-SRC1; read-out: IC50
T1 construct: […]
T1 sequence (P51449 269-508 limits assumed): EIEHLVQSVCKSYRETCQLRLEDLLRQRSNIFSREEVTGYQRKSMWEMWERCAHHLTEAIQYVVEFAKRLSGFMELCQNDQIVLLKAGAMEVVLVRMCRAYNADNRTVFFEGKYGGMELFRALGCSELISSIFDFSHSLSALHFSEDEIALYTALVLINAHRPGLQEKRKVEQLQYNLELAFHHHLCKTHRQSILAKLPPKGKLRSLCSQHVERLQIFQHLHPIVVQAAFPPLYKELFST

[1] = Pharmacokinetic evaluation in ICR mice; type: in vivo; settings: mouse, plasma, po; for AUC(0-t) / Cmax / half-life: 5 mg/kg; for bioavailability: p.o. 5 mg/kg vs i.v. 1 mg/kg, read-out: Oral bioavailability (F)
[2] = tested on: IMQ-induced mouse psoriasis model; assay: IMQ-induced mouse psoriasis model, ear weight; type: in vivo, c57bl/6 mice; settings: for Effect on the ear weight of mice compared with the model group: P<0.05
[3] = tested on: inflammatory factor IL-17; assay: IMQ-induced mouse psoriasis model, IL-17 in the ear; type: in vivo, c57bl/6 mice; settings: for Inhibition rate (IL-17 in the ear) / IL-17 Concentration (pg/μg protein): 90 mg/kg; for IL-17 Concentration (pg/μg protein): ear homogenate supernatant, model group 29.78, normal group 0.00; for Effect on the secretion of IL-17 in the ear of mice compared with the model group: P<0.05
[4] = tested on: inflammatory factor IL-17; assay: LPS-induced mouse blood inflammatory factor IL-17 model; type: in vivo, BALB/c mice
rat liver microsomes = assay: Stability in rat liver microsomes; type: in vitro ADME; settings: 0.5 mg protein/mL, 1.5 μM compound, 37° C., NADPH
[5] = Stability in human liver microsomes; type: in vitro ADME; settings: for half-life at 1.5 μM: pH 7.4, 0.5 mg protein/mL, 1.5 μM compound, 37° C., NADPH, read-out: Human Half-life t1/2; for CLint scaled at 1.5 μM: pH 7.4, intrinsic hepatic clearance inferred from microsomal incubation, read-out: Human Clearance rate
[6] = Stability in rat liver microsomes; type: in vitro ADME; settings: rat, liver microsomes, pH 7.4
[7] = 90 mg/kg, oral gavage, 10 days modeling, model group 28.12, normal group 13.03
[8] = Table 7, 30 mg/kg, plasma 4 hours after LPS, model group 174.69
[9] = Table 8, 15 mg/kg, plasma 4 hours after LPS, model group 81.33

Row | Compound | IC50 (RORγt) [nM] | AUC(0-t) [1] [µM·h] | Cmax [1] [µM] | half-life [1] [h] | bioavailability [1] [%] | Rat Half-life t1/2 (min) (rat liver microsomes) | half-life at 1.5 μM [5] [h] | CLint scaled at 1.5 μM [5] [mL/min/kg] | Inhibition rate % (ear weight) ([2]; 90 mg/kg, oral gavage) [%] | Inhibition rate (IL-17 in the ear) [3] [%] | IL-17 Concentration (pg/μg protein) [3] | Effect on the secretion of IL-17 in the ear of mice compared with the model group [3] | Effect on LPS-induced mouse blood inflammatory factor IL-17 [4] | Inhibition rate % ([4]; Table 7, 30 mg/kg) [%] | IL-17 (pg/ml) [4, 8] | other results
1 | CCS(=O)(=O)c1ccc([C@H](CC#N)NC(=O)c2ccc(N3C[C@@H](Oc4ccc(OC(F)F)cc4)C[C@H]3COC(F)F)cc2)cc1 [Example 22, N-((S)-2-cyano-1-(4-(ethylsulfonyl)phenyl)ethyl)-4-((2S,4S)-2-((difluoromethoxy)methyl)-4-(4-(difluoromethoxy)phenoxy)pyrrolidin-1-yl)benzamide] | 9 | 37 | 4.8 | 3.6 | 80 | Not metabolized | 3.98 | 7.3 | 2 | 40.08 | 17.85 * pg/μg protein | significantly reduce | a certain tendency to inhibit |  |  | Average ear weight [2, 7]: 28.12 mg; Inhibition rate % ([4]; Table 8, 15 mg/kg): 10.55%; IL-17 [4, 9]: 72.12 pg/mL
2 | CCS(=O)(=O)c1ccc([C@H](CC#N)NC(=O)c2ccc(N3C[C@@H](Oc4ccc(C(F)(F)F)cc4)C[C@H]3COC(F)F)cc2)cc1 [Example 47, N—((S)-2-cyano-1-(4-(ethylsulfonyl)phenyl)ethyl)-4-((2S,4S)-2-((difluoromethoxy)methyl)-4-(4-(trifluoromethyl)phenoxy)pyrrolidin-1-yl)benzamide] | 10 | 23.5 | 2.4 | 11.1 | 66 |  | 3.5 | 8.3 | 19 | 55.38 | 13.29 ** pg/μg protein | significantly reduce | significantly reduce | 51 | 83.18 * pg/ml | Average ear weight (mg) [2, 7]: 25.20* mg; Effect on the ear weight of mice compared with the model group [2]: significantly reduce; Inhibition rate % ([4]; Table 6, 15 mg/kg): 25.22%; IL-17 (pg/ml) ([4]; Table 6, 15 mg/kg, plasma 4 hours after LPS, model group 141.35): 104.98 * pg/ml; Inhibition rate % ([4]; Table 8, 15 mg/kg): 28.21%; IL-17 (pg/ml) [4, 9]: 56.69 ** pg/ml; half-life at 1.5 μM ([6]; 0.5 mg protein/mL, 1.5 μM compound, 37° C., NADPH, read-out: Rat Half-life t1/2): 22.4 h; CLint scaled at 1.5 μM ([6]; intrinsic hepatic clearance inferred from microsomal incubation, read-out: Rat Clearance rate): 1.9 mL/min/kg
3 | N—((S)-2-cyano-1-(4-(ethylsulfonyl)phenyl)ethyl)-4-((2S,4S)-2-((difluoromethoxy)methyl)-4-(4-(4-fluoro-1H-pyrazol-1-yl)phenoxy)pyrrolidin-1-yl) benzamide [Example 161] | 10.4 |  |  |  |  |  |  |  |  |  |  |  |  |  |  | 
4 | N—((S)-2-cyano-1-(4-(ethylsulfonyl)phenyl)ethyl)-4-((2S,5R)-5-(2,2-difluorobenzo[1,3]dioxol yl)-2-((difluoromethoxy)methyl)piperidin-1-yl)benzamide [Example 112-2] | 13 |  |  |  |  |  |  |  |  |  |  |  |  |  |  | 

More lines, main results first:

Row | IC50 (RORγt) [nM] | AUC(0-t) [1] [µM·h] | Cmax [1] [µM] | half-life [1] [h] | bioavailability [1] [%] | Rat Half-life t1/2 (min) (rat liver microsomes) | half-life at 1.5 μM [5] [h] | CLint scaled at 1.5 μM [5] [mL/min/kg] | Compound | Inhibition rate % (ear weight) ([2]; 90 mg/kg, oral gavage) [%] | Inhibition rate (IL-17 in the ear) [3] [%] | IL-17 Concentration (pg/μg protein) [3] | Effect on the secretion of IL-17 in the ear of mice compared with the model group [3] | Effect on LPS-induced mouse blood inflammatory factor IL-17 [4] | Inhibition rate % ([4]; Table 7, 30 mg/kg) [%] | IL-17 (pg/ml) [4, 8] | other results
5 | 11 | 47.2 | 3.33 | 13.2 | 91 | Not metabolized |  |  | CCS(=O)(=O)c1ccc([C@H](CC#N)NC(=O)c2ccc(N3CC(Oc4ccc(OC(F)(F)F)cc4)C[C@H]3COC(F)F)cc2)cc1 (stereo in doubt) [Example 64, N-((S)-2-cyano-1-(4-(ethylsulfonyl)phenyl)ethyl)-4-((2S,4S)-2-((difluoromethoxy)methyl)-4-(4-(trifluoromethoxy)phenoxy)pyrrolidin-1-yl)benzamide] | 22 | 72.47 | 8.20 ** pg/μg protein | significantly reduce | significantly reduce | 65 | 58.48 ** pg/ml | Average ear weight (mg) [2, 7]: 24.84* mg; Effect on the ear weight of mice compared with the model group [2]: significantly reduce
6 |  | 78 | 7 | 7.9 | 82 | Not metabolized | 1.34 | 21.6 | CCS(=O)(=O)c1ccc([C@H](CC#N)NC(=O)c2ccc(N3CC(Oc4ccc(C(F)(F)F)cn4)C[C@H]3COC(F)F)cc2)cc1 (stereo in doubt) [Example 65, N-((S)-2-cyano-1-(4-(ethylsulfonyl)phenyl)ethyl)-4-((2S,4S)-2-((difluoromethoxy)methyl)-4-((5-(trifluoromethyl)pyridine-2-yl)oxy)pyrrolidin-1-yl)benzamide] |  |  |  |  | significantly reduce | 63 | 61.71 ** pg/ml | 
7 | 9.4 |  |  |  |  |  |  |  | CCS(=O)(=O)c1ccc([C@H](COC(N)=O)NC(=O)c2cnc(N3CC(F)(F)CC3c3cccc(F)c3)nc2)cc1 (stereo partly drawn) [Example 179, (2R)-2-(2-(4,4-difluoro-2-(3-fluorophenyl)pyrrolidin-1-yl)pyrimidine-5-carboxamido)-2-(4-(ethylsulfonyl)phenyl)ethyl carbamate] |  |  |  |  |  |  |  | 
8 | 55.8 |  |  |  |  |  |  |  | NC(=O)OCC(C(=O)Nc1ccc(C(O)(C(F)(F)F)C(F)(F)F)cc1)c1ccc(S(=O)(=O)CC2CC2)cc1 (centres unmarked) [Example 182, 2-(4-((cyclopropylmethyl)sulfonyl)phenyl)-3-((4-(1,1,1,3,3,3-hexafluoro hydroxypropan-2-yl)phenyl)amino)-3-oxopropyl carbamate] |  |  |  |  |  |  |  | 
9 | 10 |  |  |  |  |  |  |  | CCS(=O)(=O)c1ccc([C@H](COC(N)=O)NC(=O)c2ccc(N3C[C@@H](Oc4ccc(Cl)cn4)C[C@H]3COC(F)F)nc2)cc1 [Example 183, (R)-2-(6-((2S,4S)-4-((5-chloropyridin-2-yl)oxy)-2-((difluoromethoxy)methyl)pyrrolidin-1-yl)nicotinamido)-2-(4-(ethylsulfonyl)phenyl)ethyl carbamate] |  |  |  |  |  |  |  | 
